Measurements from ChEMBL document CHEMBL1128903, “Atropisomeric carbamoyl type inhibitors of pancreatic cholesterol esterase” (Bioorg Med Chem Lett, 1996).
Several values for one entry are separate records, joined by “and”; a condition that tells them apart may be missing. Equal values may be shown once.

Legend:
[1] = target: T1, Bile salt-activated lipase (Bos taurus) (UniProt P30122)
T1 sequence (whole entry): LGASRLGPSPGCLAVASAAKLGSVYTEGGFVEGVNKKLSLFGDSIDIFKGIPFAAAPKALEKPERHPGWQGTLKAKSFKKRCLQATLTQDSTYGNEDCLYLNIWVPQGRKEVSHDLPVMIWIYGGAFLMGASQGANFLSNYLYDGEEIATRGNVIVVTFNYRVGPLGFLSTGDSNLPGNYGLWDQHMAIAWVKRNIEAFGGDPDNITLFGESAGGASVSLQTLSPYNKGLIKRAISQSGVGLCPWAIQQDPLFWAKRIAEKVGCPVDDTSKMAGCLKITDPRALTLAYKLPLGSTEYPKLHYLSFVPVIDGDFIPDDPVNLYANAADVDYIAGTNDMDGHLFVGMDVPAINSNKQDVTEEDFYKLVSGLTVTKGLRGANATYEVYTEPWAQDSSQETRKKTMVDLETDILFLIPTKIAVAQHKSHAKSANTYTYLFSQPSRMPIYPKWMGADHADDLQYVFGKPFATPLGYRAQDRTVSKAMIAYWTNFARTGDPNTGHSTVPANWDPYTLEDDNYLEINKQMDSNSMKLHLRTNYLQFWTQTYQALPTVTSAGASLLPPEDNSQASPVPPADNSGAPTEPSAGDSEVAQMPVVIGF
Description: Carbamylation constant (k2) for the Pancreatic cholesterol esterase-catalyzed hydrolysis of 4-nitrophenyl butyrate

[2] = target: T2, Bile salt-activated lipase (Bos taurus, UniProt P30122); assay: Bimolecular rate constant (ki) for the Pancreatic cholesterol esterase-catalyzed hydrolysis of 4-nitrophenyl butyrate
T2 sequence (P30122 whole entry): T1 sequence (whole entry)

[3] = target: T2, Bile salt-activated lipase; assay: Dissociation constant (KI) for the Pancreatic cholesterol esterase-catalyzed hydrolysis of 4-nitrophenyl butyrate

| Structure (SMILES) | k2 [1] | Bimolecular rate constant (ki) [2] | Ki [3] |
| --- | --- | --- | --- |
| CCCCNC(=O)Oc1ccc2ccccc2c1-c1c(O)ccc2ccccc12 | 0.01 10e3 s-1 and 0.007 10e3 s-1 and 0.006 10e3 s-1 | 12000 10e2 M-1 s-1 and 10000 10e2 M-1 s-1 and 5000 10e2 M-1 s-1 | 800 nM (2×) and 1.3 µM |
| CCCCNC(=O)Oc1ccc2ccccc2c1-c1c(OC(=O)NCCCC)ccc2ccccc12 | 0.00095 10e3 s-1 and 0.0016 10e3 s-1 and 0.0012 10e3 s-1 | – | – |
| CCCCNC(=O)Oc1ccc2ccccc2c1-c1c(OC(=O)CCC)ccc2ccccc12 | 0.0008 10e3 s-1 and 0.0006 10e3 s-1 (2×) | 40 10e2 M-1 s-1 and 80 10e2 M-1 s-1 and 60 10e2 M-1 s-1 | 20 µM and 9 µM and 10 µM |
